In patent US11110078B2, “Composition and method for treatment of diseases associated with central nervous system inflammation” (AMRITA VISHWA VIDYAPEETHAM, priority 2019, dated 2021):

Assays:
EAE induced animals [1] = test: Leukocyte infiltrates in brain and spinal cord of EAE animals by H and E staining; type: in vivo, C57BL/6 mice; settings: 25 days after treatment, versus saline treated EAE controls, P<0.05, n=3
Description: (§1) Animals were sacrificed 25 days after GMFBI.1 compound treatment and the levels of leukocyte infiltrates in brain as shown in FIG. 7C and spinal cord as shown in FIG. 7D were compared against EAE control by Haematoxylin and Eosin(H and E) staining.

EAE induced animals [2] = test: Reversal of EAE: clinical scores in paralyzed EAE animals; type: in vivo, C57BL/6 mice
Method: (§2) Treatment was given to a group of animals with average clinical score of 3 for a period of 2 weeks. EAE induced animals were injected at clinical score 3.5 with GMFBI.1 compound 300 μg/mice (12 mg/Kg) twice daily at day 13.EAE clinical scores of C57BL/6 mice treated with GMFBI.1 compound ([…] i.p twice daily) and controls with saline (n=5 per group) is shown in FIG. 7A.
as §1

[3] = test system: proinflammatory and anti-inflammatory cytokines; test: Cytokine levels in treated EAE animals (relative fold change); type: in vivo, C57BL/6 mice
Description: From FIG. 7G, it is observed that down regulation of these inflammatory cytokines has potential significance in the therapy and increased levels of anti-inflammatory cytokines particularly IL-10 and TGF beta levels. In MS patients, the levels of TGF beta and IL-10 are low compared to healthy individuals and significant down regulation of IL-17 are promising as IL-17 drives the inflammation in EAE and MS disease.

[4] = In vivo toxicity: serum AST and ALT liver enzymes; design: species or system mice; settings: 3, 10 and 25 days
Method: In vitro efficacy of GMFBI.1 compound in down regulating the expression of both proinflammatory mediators p38MAPK and NFκB under the control of GMF-β and its non-toxic nature at lower concentrations was first evaluated. The levels of aspartate amino transferase (AST) and alanine amino transferase (ALT) were measured spectrophotometrically from serum of GMFBI.1 compound administered animals to monitor its liver function as shown in FIG. 6A and FIG. 6B respectively. […] Grey shaded region denotes the normal range of AST and ALT enzymes in mice in FIG. 6A and FIG. 6B respectively.
The GMFBI.1 compound distribution in various compartments (organs, plasma & urine) of normal healthy mice at different time intervals (30 minutes, 1, 2, 3 and 6 hours) and its distribution profile (n=3 per group), is shown in FIG. 6C. […] Further, again 300 μg of GMFBI.1 was injected in EAE animals and the blood brain barrier is compromised as in MS patients. […] Both AST and ALT activity was measured at 3, 10 and 25 days.

[5] = Distribution into brain of EAE mice; type: in vivo
Method: (§3) The GMFBI.1 compound distribution in various compartments (organs, plasma & urine) of normal healthy mice at different time intervals (30 minutes, 1, 2, 3 and 6 hours) and its distribution profile (n=3 per group), is shown in FIG. 6C. […] Further, again 300 μg of GMFBI.1 was injected in EAE animals and the blood brain barrier is compromised as in MS patients. […] Based on these observations, mice was injected twice daily with 300 μg/mice (12 mg/Kg) GMFBI.1 for 25 days. Both AST and ALT activity was measured at 3, 10 and 25 days.
as §2

p38MAPK = p38MAPK expression in LPS stimulated cultured astrocytes; type: cell-based; settings: 500 ng/mL, n=3
[6] = Bio-distribution in compartments of normal healthy mice; type: in vivo, C57BL/6 mice; settings: 300 μg intraperitoneal
Method: as §3

GMF-β = GMF-β (Homo sapiens, UniProt P60983); test: In vitro phosphorylation of purified GMF-β by PKA; type: biochemical; settings: 250 ng/mL GMFBI.1, 1 μg/mL GMF-β, versus lane without compound
GMF-β, sequence (P60983 2-142 limits assumed): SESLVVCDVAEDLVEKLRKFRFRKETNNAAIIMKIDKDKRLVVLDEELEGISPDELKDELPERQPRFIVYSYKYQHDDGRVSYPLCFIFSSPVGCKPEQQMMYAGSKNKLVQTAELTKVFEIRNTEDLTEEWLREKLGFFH
Method: With the in silico proof of concept showing high binding efficacy to GMF-β phosphorylation sites, in vitro phosphorylation studies using PKA (PKA phosphorylation results in activation of the downstream proinflammatory cascade) and purified GMF-β in presence and absence of GMFBI.1 compound is performed. […] In FIG. 4B, “+” sign indicates experiment with 1 μg/mL GMF-β and PKA, “−” indicates control reaction in the absence of PKA and “GMFBI.1” indicates phosphorylation level on GMF-β in the presence of small molecule GMFBI.1 (250 ng/mL).

NFκB = NFκB expression in LPS stimulated cultured astrocytes; type: cell-based; settings: 500 ng/mL, n=3
astrocytes = test: MTT cell viability assay on cultured astrocytes; type: cell-based; settings: 48 hours incubation, 0-3 mg/mL tested
Method: In order to test whether virtually screened GMFBI.1 drug like compound is toxic to the cells, different concentrations (0-3 mg/mL) of GMFBI.1 on astrocytes were tested. Test includes performing MTT cell viability assay following 48 hours of incubation with GMFBI.1. […] NC represents […] with 10% Triton X-100.

[7] = versus untreated EAE controls, n=3
[8] = 300 μg/mice twice daily for 25 days

amount of compound in brain by 3 hrs ([5]; 300 μg injected, EAE animals): ≤ 15 µg
compound in brain by 6 hrs ([5]; 300 μg injected, EAE animals): no GMFBI.1 may be detected in the brain
time by which compound is detected in brain ([5]; 300 μg injected, EAE animals): ≤ 2 h
blood brain barrier crossing ([5]; EAE mice): able to cross the blood brain barrier
retention in the system ([5]; EAE mice): at least three hours
amount of compound in liver within three hours [6]: significantly reduced compared to 2 hrs
compound in kidney within three hours [6]: transiently seen in kidney
compound in urine within three hours [6]: found majorly in urine
phosphorylation of GMF-β by PKA (GMF-β): several fold decrease in phosphorylation
SMILES: OCc1cccc2[nH]ncc12 [GMFBI.1, (1-H Indazol-4-yl)-methanol]
number of cellular infiltrates in brain (EAE induced animals [1]): significant reduction in the number of cellular infiltrates
number of cellular infiltrates in spinal cord (EAE induced animals [1]): significant reduction in the number of cellular infiltrates
EAE clinical score by day 18 (EAE induced animals [2]; 300 μg/mice (12 mg/Kg; also printed 14 mg/kg i.p) twice daily from day 13, n=5): the clinical score started to improve
clinical score versus control (EAE induced animals [2]; from 7th day after treatment, P<0.001): Significant reduction in the clinical score
body weight over time versus control animals (EAE induced animals [2]; treated EAE animals): significant weight gain
EAE clinical score by day 40 (EAE induced animals [2]; twice daily i.p. from day 13): very low clinical score
locomotor motion by day 30 (EAE induced animals [2]; twice daily i.p. from day 13): able to show improvements in locomotor motion and was able to walk
IL1-β level ([3]; following treatment): down regulated significantly
GMCSF level ([3]; versus EAE controls, n=3): significant decrease
IFN-γ level ([3]; versus EAE controls, n=3): significant decrease
IL-6 level ([3]; versus EAE controls, n=3): significant decrease
IL-17A level ([3]; versus EAE controls, n=3): significant decrease
TNF-α level ([3]; versus EAE controls, n=3): significant decrease
IL-10 level (anti-inflammatory) [3, 7]: elevated significantly
TGF-β level (anti-inflammatory) [3, 7]: elevated significantly
ALT activity level versus control [4, 8]: remained similar to that of control
AST activity level versus control [4, 8]: remained similar to that of control
serum ALT level versus saline controls ([4]; 14 mg/kg twice daily): No significant difference
serum AST level versus saline controls ([4]; 14 mg/kg twice daily): No significant difference
p38MAPK protein expression (p38MAPK): statistically significant suppression
compound in brain of healthy mice at any time period [6]: no GMFBI.1 compound was detected in the brains
compound in plasma at 30 mins to 1 hr [6]: most of the GMFBI.1 compound remained in the plasma
compound in plasma by two hours [6]: no GMFBI.1 compound could be detected in plasma
free compound in organs by 6 hrs [6]: no free GMFBI.1 compound in any of the organs were detected
NFκB protein expression (NFκB): statistically significant suppression
concentration up to which astrocytes remained viable (astrocytes): ≤ 1000 µg/mL
